The values below come from US12441726B2, “Compounds and uses thereof” (Foghorn Therapeutics Inc., priority 2020, dated 2025).

The term IC50 denotes the point on the concentration scale where inhibition reaches its midpoint.

One assay concerns the target BRM (Homo sapiens, UniProt P51531). Put plainly: ATPase catalytic activity assay (ADP-Glo), BRM. The note with it: 30 nM BRM, 400 μM ATP; for IC50: BRM ATPase: IC50 (uM).
The target of another assay is BRG-1 (Homo sapiens, UniProt P51532). Kind of assay: ATPase catalytic activity assay (ADP-Glo), BRG-1. The note with it: for Emax: 1 h, read-out: BRG1 Max % Inhibition, ADP-Glo, 30 nM BRG-1, 400 μM ATP. A general note: ADP-Glo turns the ADP formed in a reaction into a luminescent signal.
Chain of BRG-1 (P51532 whole entry): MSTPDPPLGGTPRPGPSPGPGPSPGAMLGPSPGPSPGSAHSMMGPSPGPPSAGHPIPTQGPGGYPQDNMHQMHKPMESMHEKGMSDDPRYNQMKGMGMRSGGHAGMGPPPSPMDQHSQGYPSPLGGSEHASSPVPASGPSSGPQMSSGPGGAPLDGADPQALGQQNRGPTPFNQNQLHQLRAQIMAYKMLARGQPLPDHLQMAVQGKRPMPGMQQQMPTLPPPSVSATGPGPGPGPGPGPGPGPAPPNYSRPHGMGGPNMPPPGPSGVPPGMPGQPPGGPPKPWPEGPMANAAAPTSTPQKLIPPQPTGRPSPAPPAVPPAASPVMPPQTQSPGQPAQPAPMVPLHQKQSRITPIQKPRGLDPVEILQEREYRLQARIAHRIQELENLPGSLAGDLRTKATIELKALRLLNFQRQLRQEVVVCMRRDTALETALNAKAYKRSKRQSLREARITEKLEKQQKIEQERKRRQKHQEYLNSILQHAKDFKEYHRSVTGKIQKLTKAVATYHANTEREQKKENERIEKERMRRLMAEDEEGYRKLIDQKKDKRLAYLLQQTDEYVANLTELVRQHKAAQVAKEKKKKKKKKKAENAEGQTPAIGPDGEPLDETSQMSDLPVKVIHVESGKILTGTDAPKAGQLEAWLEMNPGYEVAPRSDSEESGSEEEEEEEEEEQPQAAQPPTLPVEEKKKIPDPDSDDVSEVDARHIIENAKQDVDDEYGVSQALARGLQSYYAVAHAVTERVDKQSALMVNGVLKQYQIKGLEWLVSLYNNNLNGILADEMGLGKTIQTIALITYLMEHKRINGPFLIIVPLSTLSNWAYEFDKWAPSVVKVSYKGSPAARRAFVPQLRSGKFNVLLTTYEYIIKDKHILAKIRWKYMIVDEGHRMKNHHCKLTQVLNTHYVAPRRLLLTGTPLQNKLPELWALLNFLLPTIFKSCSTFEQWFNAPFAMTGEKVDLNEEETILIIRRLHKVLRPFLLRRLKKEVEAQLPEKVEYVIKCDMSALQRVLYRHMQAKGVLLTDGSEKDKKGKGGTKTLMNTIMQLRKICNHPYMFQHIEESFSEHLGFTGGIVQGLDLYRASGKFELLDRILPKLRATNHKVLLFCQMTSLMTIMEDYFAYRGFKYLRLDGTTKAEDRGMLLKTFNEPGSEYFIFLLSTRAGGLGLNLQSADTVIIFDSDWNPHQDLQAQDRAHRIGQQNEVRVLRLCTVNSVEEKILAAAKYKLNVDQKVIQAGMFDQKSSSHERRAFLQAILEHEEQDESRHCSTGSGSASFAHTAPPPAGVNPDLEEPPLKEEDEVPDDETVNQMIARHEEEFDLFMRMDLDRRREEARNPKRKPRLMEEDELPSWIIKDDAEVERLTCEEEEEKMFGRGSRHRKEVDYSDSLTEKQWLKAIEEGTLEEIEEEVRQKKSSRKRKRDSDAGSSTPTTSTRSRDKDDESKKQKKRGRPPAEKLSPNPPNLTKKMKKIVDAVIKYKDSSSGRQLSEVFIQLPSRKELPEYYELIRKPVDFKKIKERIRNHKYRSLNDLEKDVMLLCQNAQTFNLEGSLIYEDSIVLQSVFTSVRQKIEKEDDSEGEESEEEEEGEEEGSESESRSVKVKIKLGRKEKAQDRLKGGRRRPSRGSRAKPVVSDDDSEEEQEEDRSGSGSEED

Chain of BRM (P51531 whole entry): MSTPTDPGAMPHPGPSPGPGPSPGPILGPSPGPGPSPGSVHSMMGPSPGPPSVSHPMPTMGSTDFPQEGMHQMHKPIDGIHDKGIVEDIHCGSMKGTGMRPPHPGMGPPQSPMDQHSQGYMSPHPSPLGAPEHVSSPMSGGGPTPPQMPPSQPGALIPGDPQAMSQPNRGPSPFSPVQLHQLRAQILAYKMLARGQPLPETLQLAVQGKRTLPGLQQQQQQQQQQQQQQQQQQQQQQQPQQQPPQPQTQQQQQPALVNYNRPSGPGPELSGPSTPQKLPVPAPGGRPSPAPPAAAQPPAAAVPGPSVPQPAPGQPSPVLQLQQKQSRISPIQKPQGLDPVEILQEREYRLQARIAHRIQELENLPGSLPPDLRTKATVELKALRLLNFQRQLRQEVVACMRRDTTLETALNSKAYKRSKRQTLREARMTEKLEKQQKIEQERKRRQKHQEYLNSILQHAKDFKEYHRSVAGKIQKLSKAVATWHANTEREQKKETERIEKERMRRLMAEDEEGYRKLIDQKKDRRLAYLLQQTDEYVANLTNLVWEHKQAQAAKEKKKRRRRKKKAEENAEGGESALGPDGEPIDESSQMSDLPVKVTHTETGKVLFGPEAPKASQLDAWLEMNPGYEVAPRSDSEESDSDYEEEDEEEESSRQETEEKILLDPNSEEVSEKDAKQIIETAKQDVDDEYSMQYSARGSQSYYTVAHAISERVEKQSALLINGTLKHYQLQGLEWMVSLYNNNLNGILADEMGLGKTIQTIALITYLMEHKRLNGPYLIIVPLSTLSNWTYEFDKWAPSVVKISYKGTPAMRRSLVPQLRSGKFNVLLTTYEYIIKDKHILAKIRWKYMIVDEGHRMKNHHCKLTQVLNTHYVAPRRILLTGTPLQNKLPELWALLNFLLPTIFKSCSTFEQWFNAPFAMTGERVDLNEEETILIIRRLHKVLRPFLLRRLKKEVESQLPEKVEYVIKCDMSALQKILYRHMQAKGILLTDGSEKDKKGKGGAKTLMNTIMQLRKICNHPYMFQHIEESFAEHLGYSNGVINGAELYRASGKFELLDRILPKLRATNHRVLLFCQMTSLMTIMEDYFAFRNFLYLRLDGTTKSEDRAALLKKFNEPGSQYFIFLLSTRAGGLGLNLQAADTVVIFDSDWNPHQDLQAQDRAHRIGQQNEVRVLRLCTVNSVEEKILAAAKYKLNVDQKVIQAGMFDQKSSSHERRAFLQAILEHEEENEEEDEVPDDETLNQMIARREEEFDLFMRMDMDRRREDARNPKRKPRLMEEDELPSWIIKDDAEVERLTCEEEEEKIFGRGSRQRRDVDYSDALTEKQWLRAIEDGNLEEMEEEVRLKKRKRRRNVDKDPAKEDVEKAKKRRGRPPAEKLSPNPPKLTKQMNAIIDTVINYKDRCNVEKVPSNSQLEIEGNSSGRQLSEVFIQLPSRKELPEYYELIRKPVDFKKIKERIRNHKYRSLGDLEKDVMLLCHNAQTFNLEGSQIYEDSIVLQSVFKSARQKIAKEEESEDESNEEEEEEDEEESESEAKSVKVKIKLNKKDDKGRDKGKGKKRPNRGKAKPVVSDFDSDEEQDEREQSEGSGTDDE

For `C[C@@]1(C#N)COCc2ccc(C(=O)NCc3cc4nc(-c5ccnc(N6CCC6)c5)ccc4cn3)cc21` [Compound 437], on BRM, the “BRM Max % Inhibition” value worked out at 99% and the IC50 is < 0.1 µM. Besides, at BRG-1, the IC50 fell in the range of 100 to 500 nM and the Emax turned out to be 87%.

Regarding `[2H]C1([2H])OCc2ncc(C(=O)NCc3cc4nc(-c5cncc(C6CC6)n5)ccc4cn3)cc2[C@]1(C)F` [Compound 222], at BRM, the “BRM Max % Inhibition” value stood at 98% and the 50% inhibitory concentration (IC50) is < 0.1 µM. Moreover, at BRG-1, the half-maximal inhibitory concentration (IC50) is 500 to 1000 nM and the Emax stood at 83%.

Take `C[C@@]1(F)COCc2ccc(C(=O)NCc3cc4nc(-c5cccc(N6CCCC6=O)n5)ccc4nn3)cc21` [Compound 239]: at BRM, the “BRM Max % Inhibition” value came out at 101% and the half-inhibitory concentration (IC50) is < 0.1 µM. Besides, at BRG-1, the IC50 was in the range of 100 to 500 nM and the Emax was determined as 93%.

In the case of `C[C@@]1(C#N)COCc2ccc(C(=O)NCc3cc4cc(-c5nccc(N6CCC6)n5)ccc4cn3)cc21` [Compound 365], at BRM, the “BRM Max % Inhibition” value came out at 99% and the IC50 was < 0.1 µM. Also, on BRG-1, the IC50 fell in the range of 100 to 500 nM and the Emax turned out to be 98%.

Consider `COc1cc(Cl)ccc1-c1ccc2cnc(CNC(=O)c3ccc4c(c3)[C@](C)(C#N)COC4)cc2n1` [Compound 156], for which, at BRM, the “BRM Max % Inhibition” value was determined as 99% and the 50% inhibitory concentration (IC50) was < 0.1 µM. In addition, at BRG-1, the IC50 fell in the range of 100 to 500 nM and the Emax turned out to be 97%.

As to `CO[C@@H]1CCN(c2cncc(-c3ccc4cnc(CNC(=O)c5ccc6c(c5)[C@](C)(F)COC6)cc4c3)n2)C1` [Compound 266], on BRM, the “BRM Max % Inhibition” value was determined as 103% and the half-inhibitory concentration (IC50) is < 0.1 µM. At BRG-1, the IC50 lay within 100 to 500 nM and the Emax came out at 96%.

Turning to `C[C@@]1(F)COCc2ccc(C(=O)NCc3cc4nc(-c5ccc(=O)n(C6CC6)n5)ccc4cn3)cc21` [Compound 233], at BRM, the “BRM Max % Inhibition” value was 98% and the 50% inhibitory concentration (IC50) was in the range of 0.1 to 0.5 µM. On BRG-1, the IC50 lay in the range of 500 to 1000 nM and the Emax was 74%.

As to `C[C@@]1(C#N)COCc2ccc(C(=O)NCc3cc(N4CCc5ccc(C(F)F)cc5C4)ccn3)cc21` [Compound 63], at BRM, the “BRM Max % Inhibition” value stood at 99% and the IC50 was < 0.1 µM. Further, on BRG-1, the IC50 is 500 to 1000 nM and the Emax came out at 84%.

As for `CC(=O)N1CCOc2c(-c3ccc4cnc(CNC(=O)c5ccc6c(c5)[C@](C)(C#N)COC6)cc4n3)cccc21` [Compound 320], at BRM, the “BRM Max % Inhibition” value worked out at 107% and the IC50 lay within 0.1 to 0.5 µM. Besides, at BRG-1, the IC50 fell in the range of 500 to 1000 nM and the Emax was determined as 80%.

For the compound `CN(C)c1cccc(-c2ccc3nnc(CNC(=O)c4ccc5c(c4)[C@](C)(C#N)COC5)cc3n2)n1` [Compound 223], on BRM, the “BRM Max % Inhibition” value amounted to 101% and the IC50 is < 0.1 µM. Moreover, on BRG-1, the IC50 was < 100 nM and the Emax was 101%.

Take `Cn1cc2c(n1)CCN(c1ccc3cnc(CNC(=O)c4ccc5c(c4)[C@](C)(C#N)COC5)cc3n1)C2` [Compound 455]: at BRM, the “BRM Max % Inhibition” value is 94% and the IC50 is 0.1 to 0.5 µM. Also, at BRG-1, the IC50 was 500 to 1000 nM and the Emax stood at 75%.

As for `C[C@@]1(C#N)COCc2ccc(C(=O)NCc3cc4nc(-c5cn(C6COC6)nc5CC(F)F)ccc4cn3)cc21` [Compound 136], on BRM, the “BRM Max % Inhibition” value is recorded as 83% and the half-inhibitory concentration (IC50) lay in the range of 0.1 to 0.5 µM. On BRG-1, the IC50 is > 1000 nM and the Emax amounted to 25%.

Turning to `CNC(=O)c1cc(-c2ccc3cnc(CNC(=O)c4ccc5c(c4)[C@](C)(C#N)COC5)cc3n2)ccc1F` [Compound 467], on BRM, the “BRM Max % Inhibition” value came to 99% and the IC50 was < 0.1 µM. Moreover, at BRG-1, the half-inhibitory concentration (IC50) lay in the range of 100 to 500 nM and the Emax turned out to be 86%.

Consider `Cn1c(C2CC2)cc2c(-c3ccc4cnc(CNC(=O)c5ccc6c(c5)[C@](C)(C#N)COC6)cc4n3)cccc21` [Compound 135], for which, on BRM, the “BRM Max % Inhibition” value turned out to be 103% and the 50% inhibitory concentration (IC50) was < 0.1 µM. For the same compound, on BRG-1, the IC50 was < 100 nM and the Emax worked out at 98%.

As for `COc1ccccc1-c1cnc2cnc(CNC(=O)c3ccc4c(c3)[C@](C)(F)COC4)cc2n1` [Compound 256], at BRM, the “BRM Max % Inhibition” value is listed as 98% and the IC50 is < 0.1 µM. In addition, at BRG-1, the IC50 was 500 to 1000 nM and the Emax is 76%.

With `COc1cccc(-c2ccc3cnc(CNC(=O)c4ccc5c(c4)[C@](C)(C#N)COC5)cc3n2)n1` [Compound 492], at BRM, the “BRM Max % Inhibition” value worked out at 99% and the concentration for half-maximal inhibition (IC50) is < 0.1 µM. Besides, at BRG-1, the IC50 was in the range of 100 to 500 nM and the Emax stood at 91%.

As to `COCCOCCC(=O)N1CCN(c2cccc(-c3ccc4cnc(CNC(=O)c5ccc6c(c5)[C@](C)(C#N)COC6)cc4n3)n2)CC1` [Compound 278], on BRM, the “BRM Max % Inhibition” value amounted to 101% and the half-inhibitory concentration (IC50) is < 0.1 µM. Further, on BRG-1, the IC50 is 100 to 500 nM and the Emax worked out at 96%.

As to `C[C@@]1(C#N)COCc2ccc(C(=O)NCc3cc4nc(-c5ccnc(N6CC7CC6C7)n5)ccc4cn3)cc21` [Compound 285], on BRM, the “BRM Max % Inhibition” value is on record as 98% and the IC50 was < 0.1 µM. On BRG-1, the IC50 fell in the range of 100 to 500 nM and the Emax worked out at 92%.

`C[C@@]1(F)COCc2ccc(C(=O)NCc3cc4nc(-c5cncc(C6CC6)n5)ccc4cn3)cc21` [Compound 325]: at BRM, the “BRM Max % Inhibition” value worked out at 101% and the IC50 is < 0.1 µM. In addition, at BRG-1, the IC50 lay in the range of 100 to 500 nM and the Emax was determined as 90%.

For the compound `Cc1cnn(-c2ccc3cnc(CNC(=O)c4ccc5c(c4)[C@](C)(C#N)COC5)cc3n2)c1` [Compound 505], at BRM, the “BRM Max % Inhibition” value is 96% and the IC50 was in the range of 0.1 to 0.5 µM. For the same compound, at BRG-1, the IC50 was in the range of 500 to 1000 nM and the Emax was found to be 72%.

For the compound `CN(C)c1cccc(-c2ccc3cnc(CNC(=O)c4ccc5c(c4)[C@](C)(C#N)COC5)cc3n2)n1` [Compound 360], on BRM, the “BRM Max % Inhibition” value was 99% and the concentration for half-maximal inhibition (IC50) was < 0.1 µM. Besides, on BRG-1, the IC50 was > 1000 nM and the Emax worked out at 99%.

In the case of `C[C@@H]1CN(c2cccc([C@H]3C[C@H](c4ccnc(CNC(=O)c5ccc6c(c5)[C@](C)(C#N)COC6)c4)C3)n2)C[C@H](C)O1` [Compound 81], at BRM, the “BRM Max % Inhibition” value was 98% and the IC50 is < 0.1 µM. Further, on BRG-1, the 50% inhibitory concentration (IC50) was 100 to 500 nM and the Emax worked out at 90%.

Turning to `COc1ccc([C@H]2C[C@H](c3ccnc(CNC(=O)c4ccc5c(c4)[C@](C)(C#N)COC5)c3)C2)cc1` [Compound 72], on BRM, the “BRM Max % Inhibition” value is listed as 94% and the IC50 was < 0.1 µM. Further, on BRG-1, the IC50 lay within 100 to 500 nM and the Emax turned out to be 91%.

As for `Cn1cc2c(-c3ccc4cnc(CNC(=O)c5ccc6c(c5)[C@](C)(C#N)COC6)cc4n3)cccc2n1` [Compound 151], on BRM, the “BRM Max % Inhibition” value is given as 93% and the IC50 lay within 0.1 to 0.5 µM. Besides, at BRG-1, the IC50 lay in the range of 500 to 1000 nM and the Emax was 56%.

Turning to `COc1nn(C2CCOC2)cc1-c1ccc2cnc(CNC(=O)c3ccc4c(c3)[C@](C)(C#N)COC4)cc2n1` (stereo partly shown) [Compound 197], on BRM, the “BRM Max % Inhibition” value was 89% and the IC50 lay within 0.1 to 0.5 µM. At BRG-1, the IC50 was > 1000 nM and the Emax stood at 59%.

In the case of `O=C(NCc1cc2nc(-c3ccccc3)ccc2cn1)c1cccc(C2(C(F)F)COC2)c1` [Compound 100], at BRM, the “BRM Max % Inhibition” value is listed as 83% and the IC50 fell in the range of 0.5 to 1 µM. Besides, on BRG-1, the IC50 is > 1000 nM and the Emax came out at 25%.

In the case of `C[C@@]1(C#N)COCc2ccc(C(=O)NCc3cc4nc(-c5cccc(N6CCC6=O)n5)ccc4cn3)cc21` [Compound 392], on BRM, the “BRM Max % Inhibition” value was found to be 100% and the IC50 is < 0.1 µM. Also, at BRG-1, the half-maximal inhibitory concentration (IC50) lay within 100 to 500 nM and the Emax was 95%.

As for `Cc1nccc(-c2ccc3cnc(CNC(=O)c4ccc5c(c4)[C@](C)(C#N)COC5)cc3n2)n1` [Compound 444], at BRM, the “BRM Max % Inhibition” value is 93% and the IC50 lay within 0.1 to 0.5 µM. At BRG-1, the IC50 was in the range of 500 to 1000 nM and the Emax was 67%.

With `Cc1nn(C)cc1-c1ccc2cnc(CNC(=O)c3ccc4c(c3)[C@](C)(C#N)COC4)cc2n1` [Compound 509], on BRM, the “BRM Max % Inhibition” value is recorded as 93% and the IC50 was 0.1 to 0.5 µM. At BRG-1, the IC50 lay in the range of 500 to 1000 nM and the Emax was 54%.

Regarding `COc1cccc([C@H]2C[C@H](c3ccnc(CNC(=O)c4ccc5c(c4)[C@](C)(C#N)COC5)c3)C2)c1` [Compound 74], at BRM, the “BRM Max % Inhibition” value is listed as 98% and the IC50 is < 0.1 µM. For the same compound, at BRG-1, the IC50 was 100 to 500 nM and the Emax is 87%.

Take `C[C@@]1(C#N)COCc2ccc(C(=O)NCc3cc4cc(-c5cccc(C6(O)CC6)n5)ccc4cn3)cc21` [Compound 262]: at BRM, the “BRM Max % Inhibition” value amounted to 102% and the IC50 is < 0.1 µM. On BRG-1, the IC50 was < 100 nM and the Emax amounted to 99%.

As for `COC(=O)c1cccc(C#Cc2ccnc(CNC(=O)c3ccc4c(c3)[C@](C)(O)COC4)c2)c1` [Compound 23], on BRM, the “BRM Max % Inhibition” value amounted to 85% and the IC50 lay in the range of 0.5 to 1 µM. Also, on BRG-1, the IC50 is > 1000 nM and the Emax was determined as 35%.

For `COc1nn(C2CC2)cc1-c1ccc2cnc(CNC(=O)c3ccc4c(c3)[C@](C)(C#N)COC4)cc2n1` [Compound 225], on BRM, the “BRM Max % Inhibition” value amounted to 92% and the IC50 was in the range of 0.1 to 0.5 µM. Also, at BRG-1, the IC50 lay within 500 to 1000 nM and the Emax amounted to 72%.

Take `C[C@@]1(C#N)COCc2ccc(C(=O)NCc3cc4nc(-c5cccc6c5ccn6CCO)ccc4cn3)cc21` [Compound 159]: at BRM, the “BRM Max % Inhibition” value is 99% and the IC50 was < 0.1 µM. Besides, at BRG-1, the IC50 was in the range of 100 to 500 nM and the Emax is 95%.
